From ChEMBL document CHEMBL2434921, “New synthetic aliphatic sulfonamido-quaternary ammonium salts as anticancer chemotherapeutic agents” (2013)
Activity calls are given as the source filed them. The calls are words filed in the database; no cut-off is given here.

Key:
[1] = test system: ACHN; test: Growth inhibition of human ACHN cells at 3 uM after 48 hrs by SRB assay; values are per cent of control
[2] = test system: MDA-MB-231; test: Growth of human MDA-MB-231 cells at 3 uM after 48 hrs by SRB assay; values are per cent of control; conditions: MDA-MB-231, 48 h
[3] = test system: NUGC-3; test: Growth of human NUGC3 cells at 0.3 uM after 48 hrs by SRB assay; conditions: NUGC-3, 48 h
[4] = test system: HCT-15; test: Growth inhibition of human HCT15 cells at 0.1 uM after 48 hrs by SRB assay; values are per cent of control; conditions: HCT-15, 48 h
[5] = test system: MDA-MB-231; test: Growth inhibition of human MDA-MB-231 cells at 0.3 uM after 48 hrs by SRB assay; values are per cent of control; conditions: MDA-MB-231, 48 h
[6] = test system: PC-3; test: Growth inhibition of human PC3 cells at 0.3 uM after 48 hrs by SRB assay; values are per cent of control; conditions: PC-3, 48 h
[7] = test system: NUGC-3; test: Growth of human NUGC3 cells at 0.1 uM after 48 hrs by SRB assay; conditions: NUGC-3, 48 h
[8] = test system: HCT-15; test: Growth of human HCT15 cells at 0.3 uM after 48 hrs by SRB assay; conditions: HCT-15, 48 h
[9] = test system: ACHN; test: Growth of human ACHN cells at 0.1 uM after 48 hrs by SRB assay
[10] = test system: PC-3; test: Growth inhibition of human PC3 cells at 1 uM after 48 hrs by SRB assay; values are per cent of control; conditions: PC-3, 48 h
[11] = test system: NUGC-3; test: Growth inhibition of human NUGC3 cells at 10 uM after 48 hrs by SRB assay; values are per cent of control; conditions: NUGC-3, 48 h
[12] = test system: PC-3; test: Growth inhibition of human PC3 cells at 0.1 uM after 48 hrs by SRB assay; values are per cent of control; conditions: PC-3, 48 h
[13] = molecular target: Rho-related GTP-binding protein RhoB (Homo sapiens) (UniProt P62745); test: Transactivation of RhoB (unknown origin) transfected in human HeLa cells at 5 uM measured over 10 secs by dual luciferase reporter gene assay; format: cell-based
Chain of Rho-related GTP-binding protein RhoB (Homo sapiens) (P62745 whole entry): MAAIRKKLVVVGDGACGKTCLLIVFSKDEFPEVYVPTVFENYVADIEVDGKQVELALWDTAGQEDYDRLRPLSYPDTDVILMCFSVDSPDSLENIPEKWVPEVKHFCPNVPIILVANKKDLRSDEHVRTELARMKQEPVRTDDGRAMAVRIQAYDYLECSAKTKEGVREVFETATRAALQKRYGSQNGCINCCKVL

[14] = test system: HCT-15; test: Growth inhibition of human HCT15 cells at 1 uM after 48 hrs by SRB assay; values are per cent of control; conditions: HCT-15, 48 h
[15] = test system: MDA-MB-231; test: Growth inhibition of human MDA-MB-231 cells after 48 hrs by SRB assay; format: functional; conditions: MDA-MB-231, 48 h
[16] = test system: PC-3; test: Growth inhibition of human PC3 cells at 3 uM after 48 hrs by SRB assay; values are per cent of control; conditions: PC-3, 48 h
[17] = test system: NUGC-3; test: Growth of human NUGC3 cells at 1 uM after 48 hrs by SRB assay; conditions: NUGC-3, 48 h
[18] = test system: MDA-MB-231; test: Growth of human MDA-MB-231 cells at 10 uM after 48 hrs by SRB assay; conditions: MDA-MB-231, 48 h
[19] = test system: HCT-15; test: Growth inhibition of human HCT15 cells after 48 hrs by SRB assay; format: functional; conditions: HCT-15, 48 h
[20] = test system: MDA-MB-231; test: Growth of human MDA-MB-231 cells at 1 uM after 48 hrs by SRB assay; conditions: MDA-MB-231, 48 h
[21] = test system: NCI-H23; test: Growth inhibition of human NCI-H23 cells after 48 hrs by SRB assay; format: functional; conditions: NCI-H23, 48 h
[22] = test system: NCI-H23; test: Growth inhibition of human NCI-H23 cells at 3 uM after 48 hrs by SRB assay; values are per cent of control; conditions: NCI-H23, 48 h
[23] = test system: HCT-15; test: Growth inhibition of human HCT15 cells at 10 uM after 48 hrs by SRB assay; values are per cent of control; conditions: HCT-15, 48 h
[24] = test system: MDA-MB-231; test: Growth of human MDA-MB-231 cells at 0.1 uM after 48 hrs by SRB assay; conditions: MDA-MB-231, 48 h
[25] = test system: PC-3; test: Growth of human PC3 cells at 10 uM after 48 hrs by SRB assay; conditions: PC-3, 48 h
[26] = test system: HCT-15; test: Growth of human HCT15 cells at 3 uM after 48 hrs by SRB assay; conditions: HCT-15, 48 h
[27] = test system: NUGC-3; test: Growth inhibition of human NUGC3 cells after 48 hrs by SRB assay; format: functional; conditions: NUGC-3, 48 h
[28] = test system: NCI-H23; test: Growth inhibition of human NCI-H23 cells at 0.1 uM after 48 hrs by SRB assay; values are per cent of control; conditions: NCI-H23, 48 h
[29] = test system: NUGC-3; test: Growth inhibition of human NUGC3 cells at 3 uM after 48 hrs by SRB assay; values are per cent of control; conditions: NUGC-3, 48 h
[30] = test system: PC-3; test: Growth inhibition of human PC3 cells after 48 hrs by SRB assay; format: functional; conditions: PC-3, 48 h
[31] = test system: ACHN; test: Growth inhibition of human ACHN cells after 48 hrs by SRB assay; format: functional
[32] = test system: ACHN; test: Growth of human ACHN cells at 0.3 uM after 48 hrs by SRB assay
[33] = test system: ACHN; test: Growth inhibition of human ACHN cells at 1 uM after 48 hrs by SRB assay; values are per cent of control
[34] = test system: NCI-H23; test: Growth inhibition of human NCI-H23 cells at 1 uM after 48 hrs by SRB assay; values are per cent of control; conditions: NCI-H23, 48 h
[35] = test system: NCI-H23; test: Growth of human NCI-H23 cells at 0.3 uM after 48 hrs by SRB assay; conditions: NCI-H23, 48 h
[36] = test system: NCI-H23; test: Growth of human NCI-H23 cells at 10 uM after 48 hrs by SRB assay; conditions: NCI-H23, 48 h
[37] = test system: ACHN; test: Growth of human ACHN cells at 10 uM after 48 hrs by SRB assay

| SMILES | growth, % of control at 3 µM [1] | growth, % of control at 3 µM [2] | growth, % of control at 0.3 µM [3] | growth, % of control at 0.1 µM [4] | growth, % of control at 0.3 µM [5] | growth, % of control at 0.3 µM [6] | growth, % of control at 0.1 µM [7] | growth, % of control at 0.3 µM [8] | growth, % of control at 0.1 µM [9] | growth, % of control at 1 µM [10] | growth, % of control at 10 µM [11] | growth, % of control at 0.1 µM [12] | Activity [13] | growth, % of control at 1 µM [14] | GI50 [15] | growth, % of control at 3 µM [16] | growth, % of control at 1 µM [17] | growth, % of control at 10 µM [18] | GI50 [19] | growth, % of control at 1 µM [20] | further results |
| --- | --- | --- | --- | --- | --- | --- | --- | --- | --- | --- | --- | --- | --- | --- | --- | --- | --- | --- | --- | --- | --- |
| CCCCCCCCCCCCCCS(=O)(=O)N(C)CC[N+](C)(C)C | 47.2% | 35.3% | 84.5% | 95.7% | 98.2% | 93.6% | 92.4% | 97.5% | 107% | 45.1% | 9% | 92% | Active | 55.6% | 920 nM | 11.4% | 34.4% | 7.8% | 750 nM | 66.3% | GI50 [21]: 2040 nM; growth, % of control at 3 µM [22]: 59.1%; growth, % of control at 10 µM [23]: 20.2%; growth, % of control at 0.1 µM [24]: 99.1%; growth, % of control at 10 µM [25]: -14.3%; growth, % of control at 3 µM [26]: 26.9%; GI50 [27]: 390 nM; growth, % of control at 0.1 µM [28]: 94.5%; growth, % of control at 3 µM [29]: 18.4%; GI50 [30]: 470 nM; GI50 [31]: 1400 nM; growth, % of control at 0.3 µM [32]: 100%; growth, % of control at 1 µM [33]: 71.6%; growth, % of control at 1 µM [34]: 86.3%; growth, % of control at 0.3 µM [35]: 100%; growth, % of control at 10 µM [36]: 23.7%; growth, % of control at 10 µM [37]: 21.3% |
| CCCCCCCCCCCCCCS(=O)(=O)N(C)CC[N+](C)(CC)CC | 51.7% | 34.3% | 104% | 95% | 101% | 108% | 98.7% | 96.3% | 100% | 79.9% | 3.1% | 114% | Active | 88.4% | 1220 nM | 10.5% | 45.7% | 16.5% | 2350 nM | 81.5% | GI50 [21]: 710 nM; growth, % of control at 3 µM [22]: 16.4%; growth, % of control at 10 µM [23]: 27%; growth, % of control at 0.1 µM [24]: 103%; growth, % of control at 10 µM [25]: -1.7%; growth, % of control at 3 µM [26]: 60.5%; GI50 [27]: 520 nM; growth, % of control at 0.1 µM [28]: 96.5%; growth, % of control at 3 µM [29]: 10.6%; GI50 [30]: 820 nM; GI50 [31]: 1740 nM; growth, % of control at 0.3 µM [32]: 102%; growth, % of control at 1 µM [33]: 87.4%; growth, % of control at 1 µM [34]: 65.4%; growth, % of control at 0.3 µM [35]: 91%; growth, % of control at 10 µM [36]: -0.5%; growth, % of control at 10 µM [37]: 16.4% |
| CCCCCCCCCCCCCCCCS(=O)(=O)N(C)CCC[N+](C)(C)C | 36.3% | 39.2% | 59.1% | 100% | 92.3% | 91% | 91.8% | 104% | 96.7% | 31.5% | -40.9% | 101% | Active | 57% | 1040 nM | -24.5% | 25% | 8.8% | 780 nM | 66.5% | GI50 [21]: 910 nM; growth, % of control at 3 µM [22]: 26.5%; growth, % of control at 10 µM [23]: 8.7%; growth, % of control at 0.1 µM [24]: 97.6%; growth, % of control at 10 µM [25]: -54.1%; growth, % of control at 3 µM [26]: 26.7%; GI50 [27]: 210 nM; growth, % of control at 0.1 µM [28]: 94.9%; growth, % of control at 3 µM [29]: -22.4%; GI50 [30]: 440 nM; GI50 [31]: 1000 nM; growth, % of control at 0.3 µM [32]: 97.6%; growth, % of control at 1 µM [33]: 72.2%; growth, % of control at 1 µM [34]: 72.7%; growth, % of control at 0.3 µM [35]: 97.3%; growth, % of control at 10 µM [36]: -10.4%; growth, % of control at 10 µM [37]: -31.4% |
